The values that follow come from patent US9969700B2, “P2X4 receptor antagonist” (NIPPON CHEMIPHAR CO., LTD, priority 2012, dated 2018).

Counter-ions that a name gives are not always drawn.

For orientation: IC50 means the concentration that inhibits the measured activity by half.

One experiment relates to Neurogenic pain model (modified Chung model). The experiment can be described thus: Analgesic activity, von Frey filament test in neurogenic pain model (modified Chung model). The experiment is classed as in vivo. Conditions: rats, oral administration of 50 mg/kg, day 9 after the modified Chung operation; significant difference compared with vehicle group. Here is the method: Neurogenic pain model (modified Chung model) was prepared according to the description of Non-patent document 9. More specifically, under isoflurane anesthesia, back hair of rats was extensively shaved, the shaved parts were wiped with rubbing alcohol, the rate were fixed on an incubator in the abdominal position, and the skins were cut and opened along the dorsal median line on the upper and lower sides of the sacroiliac bone. The left lateral paravertebral muscle was separated in the sacral region, and then the ligament was separated. The sacroiliae rim and the upper part thereof were cut and opened along the pyramid, the L5 nerve was ligated, and the nerve was cut on the peripheral side. […]
The pain threshold value (paw withdrawal threshold (g)) was calculated according to the up down method by stimulating the sole with a von Frey filament (Stoelting Co., TOUCH-TEST SENSORY EVALUATOR) and determining presence or absence of withdrawal response.
As the von Frey filaments, seven filaments giving different stimulation strengths were used. The 50% threshold value was calculated according to the up down method by referring to the method of Chaplan et al. (Chaplan S R, Bach F W, Pogrel J W, Chung J M, Yaksh T L.: Quantitative assessment of tactile allodynia in the rat paw, J. Neurosci. Methods, 53:55-63 (1994). […]
Consider `O=C1CC(=O)N(c2ccc(NC(=O)c3ccccc3I)cc2)c2ccc3ccccc3c2N1` [Example 48, 5-[4-(2-Iodobenozoylamino)phenyl]-1H-naphtho[1,2-b][1,4]diazepine-2,4(3H,5H)-dione], for which the “pain threshold value (paw withdrawal threshold) of the diseased limb” value is reported as “raised the pain threshold value of the diseased limb”.

For `O=C1CC(=O)N(c2ccc(NC(=O)c3c(O)cccc3Cl)cc2)c2ccc3ccccc3c2N1` [Example 118, 5-[4-(6-Chloro-2-hydroxybenzoylamino)phenyl]-1H-naphtho[1,2-b][1,4]diazepine-2,4(3H,5H)-dione], the “pain threshold value (paw withdrawal threshold) of the diseased limb” value is “raised the pain threshold value of the diseased limb”.

For another experiment, the target named is human P2X4 receptor (Homo sapiens (Human), UniProt Q99571). The experiment can be described thus: P2X4 receptor antagonist activity (ATP-induced intracellular calcium, Fura-2 AM). The experiment is classed as cell-based. Conditions: 1321N1 cells stably expressing human P2X4 receptor; test substance 15 minutes before ATP; read-out: Inhibitory activity IC50. Background: A change in cytosolic calcium serves as a functional read-out for many receptors and channels.
human P2X4 receptor, sequence (Q99571 whole entry): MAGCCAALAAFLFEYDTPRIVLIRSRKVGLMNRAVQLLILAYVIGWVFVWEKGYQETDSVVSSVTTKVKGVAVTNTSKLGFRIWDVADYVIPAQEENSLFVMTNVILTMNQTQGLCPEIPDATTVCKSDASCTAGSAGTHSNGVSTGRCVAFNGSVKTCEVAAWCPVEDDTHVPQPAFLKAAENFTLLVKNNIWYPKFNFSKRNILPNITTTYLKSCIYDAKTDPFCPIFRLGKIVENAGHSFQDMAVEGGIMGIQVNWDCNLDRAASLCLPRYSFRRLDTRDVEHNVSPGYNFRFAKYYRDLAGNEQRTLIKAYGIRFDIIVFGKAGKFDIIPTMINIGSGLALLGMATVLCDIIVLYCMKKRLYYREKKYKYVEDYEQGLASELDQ
For the compound `O=C(Cc1ccccc1Cl)Nc1ccc(N2C(=O)CC(=O)Nc3c2ccc2ccccc32)cc1` [Example 13, 5-[4-[(2-Chlorophenylacetyl)amino]phenyl]-1H-naphtho[1,2-b][1,4]diazepine-2,4(3H,5H)-dione], the IC50 was 540 nM.

Turning to `O=C1CC(=O)N(c2ccc(NC(=O)Nc3ccccc3)cc2)c2ccc3ccccc3c2N1` [Example 20, 1-[4-(2,4-Dioxo-1,2,3,4-tetrahydronaphtho[1,2-b][1,4]diazepin-5-yl)phenyl]-3-phenylurea], the 50% inhibitory concentration (IC50) was 1200 nM.

For `O=C1CC(=O)N(c2ccc(NC(=O)c3c(O)cccc3Cl)cc2)c2ccc3ccccc3c2N1` [Example 118, 5-[4-(6-Chloro-2-hydroxybenzoylamino)phenyl]-1H-naphtho[1,2-b][1,4]diazepine-2,4(3H,5H)-dione], the concentration for half-maximal inhibition (IC50) was 1100 nM.

Consider `CN(c1ccc(N2C(=O)CC(=O)Nc3c2ccc2c3CCCC2)cc1)S(=O)(=O)Cc1ccccc1Cl` [Example 196, 1-(2-Chlorophenyl)-N-[4-(2,4-dioxo-1,2,3,4,8,9,10,11-octahydronaphtho[1,2-b][1,4]diazepin-5-yl)phenyl]-N-methylmethanesulfonamide], for which the IC50 was 970 nM.

On to `O=C1CN=C(c2ccc(NS(=O)(=O)Cc3ccccc3Cl)cc2)c2ccc3ccccc3c2N1` [Example 197, 1-(2-Chlorophenyl)-N-[4-(2-oxo-2,3-dihydro-1H-naphtho[1,2-e][1,4]diazepin-5-yl)phenyl]methanesulfonamide], for which the IC50 is 440 nM.

For the compound `Cc1ncccc1C(=O)Nc1ccc(N2C(=O)CC(=O)Nc3c2ccc2ccccc32)cc1` [Example 208, 5-[4-[(2-Methylpyridin-3-yl)carbonylamino]phenyl]-1H-naphtho[1,2-b][1,4]diazepine-2,4(3H,5H)-dione hydrochloride], the IC50 is 1300 nM.

For the compound `O=C1CC(=O)N(c2ccc(NC(=O)c3cccnc3Cl)cc2)c2ccc3ccccc3c2N1` [Example 209, 5-[4-[(2-Chloropyridin-3-yl)carbonylamino]phenyl]-1H-naphtho[1,2-b][1,4]diazepine-2,4(3H,5H)-dione], the IC50 was 940 nM.

On to `O=C(COc1ccccn1)Nc1ccc(N2C(=O)CC(=O)Nc3c2ccc2ccccc32)cc1` [Example 210, 5-[4-[2-[(Pyridin-2-yl)oxy]acetylamino]phenyl]-1H-naphtho[1,2-b][1,4]diazepine-2,4(3H,5H)-dione], for which the IC50 turned out to be 1400 nM.
